Assay results reported in patent publication US10814036B2, “Drug-eluting live tissue for transplantation” (BAYLOR UNIVERSITY, priority 2016, dated 2020).
Entries after “also recorded” stand apart in the source; their conditions may differ.

How the values were obtained:
TLR4 [1] = biological target: T1, TLR4 (Mus musculus, UniProt Q9QUK6); experiment: LPS challenge of drug-eluting mouse islets, IL-6 expression (Example 15); format: cell-based; conditions: for protection from LPS challenge (IL-6 expression): 24 h after modification or treatment
T1 construct: from tissue; host or cells: pancreatic islets of C57BL/6 mice
T1 sequence (Q9QUK6 26-835): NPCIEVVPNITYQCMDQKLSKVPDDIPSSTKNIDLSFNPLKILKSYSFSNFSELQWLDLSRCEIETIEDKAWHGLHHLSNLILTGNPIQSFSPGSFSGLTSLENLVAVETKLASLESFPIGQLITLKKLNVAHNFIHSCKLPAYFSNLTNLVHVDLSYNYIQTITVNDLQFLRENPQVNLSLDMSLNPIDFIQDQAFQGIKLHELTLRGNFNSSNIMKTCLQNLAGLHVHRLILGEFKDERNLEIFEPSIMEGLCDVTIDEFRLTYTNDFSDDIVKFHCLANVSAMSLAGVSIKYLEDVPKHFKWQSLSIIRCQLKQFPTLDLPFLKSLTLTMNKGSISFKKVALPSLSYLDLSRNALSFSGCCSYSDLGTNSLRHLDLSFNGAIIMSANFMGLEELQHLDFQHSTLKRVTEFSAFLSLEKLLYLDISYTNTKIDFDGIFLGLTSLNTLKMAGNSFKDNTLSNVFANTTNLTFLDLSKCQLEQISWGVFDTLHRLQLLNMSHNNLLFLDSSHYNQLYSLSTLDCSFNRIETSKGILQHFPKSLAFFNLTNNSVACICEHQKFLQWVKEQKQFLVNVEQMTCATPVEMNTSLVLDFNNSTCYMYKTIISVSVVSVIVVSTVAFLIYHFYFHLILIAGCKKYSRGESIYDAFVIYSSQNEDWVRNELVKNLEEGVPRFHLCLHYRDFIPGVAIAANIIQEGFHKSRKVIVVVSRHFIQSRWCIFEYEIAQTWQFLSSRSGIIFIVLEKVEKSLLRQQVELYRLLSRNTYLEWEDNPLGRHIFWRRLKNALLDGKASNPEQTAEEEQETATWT
Experimental: (§1) In order to study the function and efficacy of the cleavable prodrug, in vitro experiments were performed challenging mouse islets with LPS at different times post-modification. […] HEK Blue hTLR4 reporter cells were treated with either free TAK-242 or the TAK-PhSO2-Linker prodrug, followed by LPS challenge.
(§2) Data represented as means±SEM (n=3 per group). Statistical significance determined by two-tailed unpaired t test. n.s. means not significant.

MIN6 cells = experiment: MTT viability assay in MIN6 beta cells; format: cell-based; conditions: days 1, 3 and 7, effective concentrations
Experimental: MIN6 cells were seeded in a 96-well plate at 15,000 cells per well in RPMI. After overnight culture, culture media was replaced with media containing the indicated TAK-242 concentrations. The control (0 nM TAK-242) contained 0.1% DMSO. Media was changed on day 3. On days 1, 3, and 7, an MTT viability assay was performed. Data are represented as means±SEM. P>0.05 for all samples (one-way ANOVA with Tukey's multiple-comparisons test).

[2] = system: streptozotocin-induced diabetes; experiment: Syngeneic islet transplant in streptozotocin-induced diabetic mice; format: in vivo, C57BL/6 mice
Experimental: With the promising in vitro results described above, islet transplantation experiments were performed in a syngeneic wild-type C57BL/6 streptozotocin-induced diabetes model. Recipient male C57BL/6 mice 6-7 weeks old were made diabetic by a single intraperitoneal injection of streptozotocin (200 mg/kg; Sigma-Aldrich). Diabetic mice are defined as having a nonfasting blood glucose >400 mg/dL for 2 consecutive days. Prior to transplantation, islets were untreated, pretreated with 3 μM TAK-242, or modified with TAK-PhSO2-Linker as described above. Diabetic C57BL/6 mice were anesthetized under isofluorane, and a field between the rib cage and pelvis on the left side was disinfected by 1% providone iodine scrub and 70% ethanol. A minimal incision (˜8 to 10 mm) into the peritoneum was made to expose the kidney, and a small cut (˜2 mm) was made in the kidney capsule using a 30G needle. Then a flame-blunted glass pipette tip was inserted into the kidney capsule through the cut to create a pocket between the renal cortex and capsule. Islets were then injected into the pocket via PE-50 polyethylene tubing (Becton Dickinson) connected to a 1 mL syringe filled with RPMI 1640 driven by an NE-300 syringe pump (New Era Pump Systems). At the completion of islet infusion, the incision was closed with 4-0 violet monofilament (Ethicon) via continuous nonlocking sutures. After closing, mice received a 0.1 mg/kg bolus of buprenorphine subcutaneously near the incision. Engraftment success was measured by nonfasting blood glucose measurements 5 times a week over a 4-week period with a Breeze 2 Glucose Monitor (Bayer). Mice were considered cured on the first day of two consecutive glucose measurements below 200 mg/dL (˜11 mM).
Diabetic mice were separated into untreated (n=4), TAK-242 (n=6), and TAK-PhO2-Linker (n=6) groups. A marginal dose of ˜100 islets was determined by titrating doses of TAK-242-treated islets. […] Diabetic C57BL/6 mice were transplanted with (FIG. 33A) 200, (FIG. 33B) 150, or (FIG. 33C) 100 TAK-242-treated islets. Blood glucose was monitored for 4 weeks before IPGTT on day 30 and at nephrectomy on day 35. […] This marginal dose was transplanted into the kidney subcapsular space in each group, and blood glucose was monitored for 4 weeks.

TLR4 [3] = conditions: human and murine models; depending on cell type; read-out: TLR4 inhibition IC50; cited from earlier work
TLR4 [4] = biological target: T1, TLR4; experiment: Extended protection of modified islets, IL-6 mRNA after LPS challenge (Example 5); format: cell-based, murine; conditions: LPS 2 ug/mL 4 hrs, 24 hrs after treatment or islet modification; unprotected islets ~59-fold
Experimental: Compared to free TAK-242 pre-treatment, the TAK-Linker compound covalently attached to the islet surface provides extended protection.
First, islets were modified with either TAK-Linker or TAK-HexOH (1 hr NHS-DBCO followed by 1 hr TAK compounds), or treated with free TAK-242 (3 uM, 30 min @37° C.). All islets were rinsed with culture media (RPMI 1640, 10% FBS) prior to culturing. After overnight culture, the treated groups were challenged with LPS (2 ug/mL, 4 hrs @ 37° C.), a TLR4-specific agonist, and compared to unprotected islets (LPS) and unprotected/untreated control islets.
Total RNA was isolated from the islets for mRNA analysis. The gene expression of cytokine IL-6 was used for evaluation due to its key role in acute inflammation.

TLR4 [5] = biological target: T1, TLR4; experiment: rHMGB1 challenge of mouse islets, gene expression analysis; format: cell-based, C57BL/6 mice; conditions: 1 μg/mL rHMGB1, 4 h, TAK-242 pretreatment
Experimental: Similar results were observed when islets were challenged with high-mobility group box 1 (HMGB1; FIG. 26), an endogenous damage-associated molecular pattern (DAMP) known to elicit acute inflammation through TLR4. […] Islets from C57BL/6 mice were challenged with 1 μg/mL rHMGB1 with or without TAK-242 pretreatment. After 4 h, total RNA was isolated from the islets for gene expression analysis. The proinflammatory genes (A) CXCL10 and (B) CCL2 were examined in the samples. Data represented as means±SEM. *P<0.05 (n=3 for all samples, unpaired two-tailed t test).

hTLR4 = biological target: T2, hTLR4 (Homo sapiens, UniProt O00206); experiment: HEK Blue hTLR4 reporter cells, TLR4-mediated NFkB upregulation, colorimetric assay; format: cell-based; conditions: brief treatment, unconjugated compound
T2 construct: expressed in transfected cells; host or cells: HEK Blue hTLR4 reporter cells
Experimental: as §1, §2

TLR4 [6] = biological target: T1, TLR4; experiment: LPS challenge of mouse islets, RT-PCR gene expression and multiplex cytokine analysis; format: cell-based, C57BL/6 mice
Experimental: To initially investigate whether free TAK-242 can protect islets from TLR4-mediated inflammation, inflammatory responses in islets from C57BL/6 mice challenged with the canonical TLR4 ligand lipopolysaccharide (LPS) were examined. As discussed in detail below, islets were treated with TAK-242 (3 μM for 30 min) before a 24-h challenge with a high dose of LPS (2 μg/mL). After 24 h, culture media was analyzed by multiplex assay, and mRNA was isolated from islet cells for analysis by real-time polymerase chain reaction (RT-PCR).
Materials and Methods. After overnight culture, islets were washed in Dulbecco's PBS (Caisson Labs, Smithfield, Utah, USA) before treatment with TAK-242 (3 μM, 30 min; MedchemExpress) and 2 μg/mL LPS-EB (Ultrapure from Escherichia coli O111:B4; Invivogen) for 24 h at 37° C. and 5% CO2. Islets were washed once with cold Dulbecco's PBS immediately after treatment, and total RNA was isolated from samples using TRIzol […] and converted to cDNA using a high capacity cDNA reverse transcription kit (Applied Biosystems) following manufacturer protocols. Quantitative expression of genes of interest was determined using RT2 SYBR Green qPCR master mix (Qiagen) on a Bio-Rad CFX Connect (Bio-Rad) with the following program: 95° C., 10 min and 40 cycles of 95° C., 15 sec, 60° C., 1 min. Primers for quantitative real-time PCR analysis were purchased from commercially available stock from Integrated DNA Technologies (Coralville). Relative gene expression was calculated using the 2-ΔΔCT method normalized to 18S mRNA. Cytokines from assay culture media were analyzed using Milliplex MCYTOMAG-70K Assay (EMD Millipore). Samples were prepared following manufacturer guidelines. Analysis was performed after overnight incubation at 4° C. on a Luminex 200 (Luminex). Samples were assayed in triplicate and analyzed in triplicate for cDNA or in duplicate for multiplex assay.

[7] = Linker prodrug stability and release kinetics in PBS by LC-MS; format: physicochemical; conditions: phosphate-buffered saline; PBS pH 7.4, 37° C.; read-out: half-life of TAK-PhSO2-Linker (release of free TAK-242) (converted)
Experimental: The stability of the linker prodrug was explored in this example. The TAK-PhSO2-Linker compound was incubated in phosphate-buffered saline (PBS; pH 7.4) at 37° C., and the solution sampled over the course of several days. Liquid chromatography-mass spectrometry (LC-MS) was used to identify and quantitate the compounds released from this prodrug.

T2 sequence (O00206 24-839): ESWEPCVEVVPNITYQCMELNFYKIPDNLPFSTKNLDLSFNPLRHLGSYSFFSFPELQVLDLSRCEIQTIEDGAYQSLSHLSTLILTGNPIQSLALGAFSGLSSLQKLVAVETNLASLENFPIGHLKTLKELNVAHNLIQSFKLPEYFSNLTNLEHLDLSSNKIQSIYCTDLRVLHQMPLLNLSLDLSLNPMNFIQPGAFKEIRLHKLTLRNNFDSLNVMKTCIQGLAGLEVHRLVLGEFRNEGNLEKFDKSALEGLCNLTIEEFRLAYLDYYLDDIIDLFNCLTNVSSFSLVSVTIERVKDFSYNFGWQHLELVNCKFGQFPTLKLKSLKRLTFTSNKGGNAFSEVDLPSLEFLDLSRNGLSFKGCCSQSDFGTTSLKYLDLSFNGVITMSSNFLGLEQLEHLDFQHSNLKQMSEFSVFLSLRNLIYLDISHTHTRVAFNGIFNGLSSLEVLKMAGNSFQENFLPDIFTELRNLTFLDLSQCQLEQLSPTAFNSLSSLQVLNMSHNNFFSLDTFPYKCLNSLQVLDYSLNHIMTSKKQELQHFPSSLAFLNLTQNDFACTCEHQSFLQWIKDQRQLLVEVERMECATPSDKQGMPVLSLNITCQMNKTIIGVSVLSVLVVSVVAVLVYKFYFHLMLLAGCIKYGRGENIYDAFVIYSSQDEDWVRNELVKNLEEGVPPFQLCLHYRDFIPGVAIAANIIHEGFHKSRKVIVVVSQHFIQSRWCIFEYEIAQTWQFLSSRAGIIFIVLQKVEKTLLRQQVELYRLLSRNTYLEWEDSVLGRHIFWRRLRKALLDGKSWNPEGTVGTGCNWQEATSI

Row | increase in IL-6 expression (TLR4 [4]) | CXCL10 gene expression (TLR4 [6]; 3 μM TAK-242 pretreatment 30 min, 24 h after 2 μg/mL LPS, LPS alone 26-fold) | CCL2 gene expression (TLR4 [6]; 3 μM TAK-242 pretreatment 30 min, 24 h after 2 μg/mL LPS, LPS alone 55-fold) | half-life [7] | SMILES | protection against LPS-mediated inflammation (IL-6) (TLR4 [1]; islet surfaces functionalized only, no prodrug) | toxicity to beta cells (MTT viability) (MIN6 cells) | cure time and glycemic control, islet dose titration ([2]; 100 TAK-242-treated islets) | mean nonfasting blood glucose ([2]; 100 islets, 4 weeks) | mean time to cure ([2]; 100 islets, cured = two consecutive glucose measurements below 200 mg/dL) | cure time and glycemic control, islet dose titration ([2]; 200 and 150 TAK-242-treated islets) | IC50 (TLR4 [3]) | protection from LPS challenge (IL-6 expression) (TLR4 [1]) | inhibition of LPS-mediated inflammation (TLR4 [1]; immediately after treatment) | CXCL10 and CCL2 gene expression after rHMGB1 challenge (TLR4 [5]) | inhibition of TLR4-mediated NFkB upregulation after LPS challenge (hTLR4) | proinflammatory cytokines IL-6, CXCL1, CXCL10, CCL2, TNF-α in culture media (TLR4 [6]; TAK-242 pretreatment, 24 h after LPS challenge, versus LPS alone)
1 |  |  |  |  | O=C(CCC(=O)N1Cc2ccccc2C#Cc2ccccc21)NCCOCCOCCOCCOCCC(=O)ON1C(=O)CCC1=O [NHS-PEG4-DBCO, dibenzocyclooctyne-PEG4-N-hydroxysuccinimidyl ester] | no protection against LPS-mediated inflammation |  |  |  |  |  |  |  |  |  |  | 
2 | ~32 fold | 0.91 fold | 1.01 fold |  | CCOC(=O)C1=CCCCC1S(=O)(=O)Nc1ccc(F)cc1Cl (stereo not shown) [TAK-242, ethyl 6-(N-(2-chloro-4-fluorophenyl)sulfamoyl)cyclohex-1-ene-1-carboxylate] |  | negligible toxicity | delayed cure time and exhibited significant average glycemic lability | demonstrated some control | 21.0 ± 4.9 days | quick cure times and good glycemic control | 0.001 to 0.033 µM | beings to lose its effectiveness by 24 h; also recorded: provided protection from TLR4-mediated inflammation 24 hours post treatment | completely inhibit LPS-mediated inflammation | protection of mouse islets against rHMGB1-mediated TLR4 inflammation | completely blocked LPS; also recorded: completely inhibited the upregulation of NFkB | significantly lower levels of these cytokines
3 | ~3 fold |  |  | ~25 h | CCOC(=O)C1=CCCCC1S(=O)(=O)N(C(=O)OC(CCCCCN=[N+]=[N-])CS(=O)(=O)c1ccccc1)c1ccc(F)cc1Cl (stereo not shown) [TAK-PhSO2-Linker] |  |  |  |  |  |  |  | significantly protected from LPS challenge; also recorded: significantly better than that of free TAK-242 alone; also recorded: significantly protected against LPS-mediated inflammation |  |  | negligible TLR4-antagonist activity; also recorded: provided no protection; also recorded: no significant protection | 
